{
  "source": "patent US10925881B2",
  "about": "“Treatment of conditions associated with hyperinsulinaemia” (Tensha Therapeutics, Inc., priority 2014, dated 2021)",
  "key": {"[1]": {"target": "BRD4(1) (Homo sapiens (Human), UniProt O60885)", "experiment": "Alpha-assay binding, BRD4 site 1", "conditions": "for binding activity with the BRD4 site 1: result in words", "experimental": "The binding activity of lead compounds with the BRD4 site 1 was determined by Alpha-assay with a 12-point dose response curve."}, "[2]": {"target": "BRD4(2) (Homo sapiens (Human), UniProt O60885)", "experiment": "Alpha-assay binding, BRD4 site 2", "conditions": "for binding activity with the BRD4 site 2: result in words"}, "[3]": {"test_system": "four rat insulinoma (RIN) cell lines, RIN-14B, RIN-m5F, RIN-m, and RIN-5", "experiment": "Cell Titer-Glo rat insulinoma cell assay, statement for all four cell lines", "type": "cell-based", "conditions": "for cell viability at higher concentrations: cytotoxic effect; for IC50: read-out: IC50 values, all cell lines", "experimental": "(§1) Paclitaxel was used as a positive control.\n(§2) The plate was shaken for 2 minutes and allowed to equilibrate for 10 minutes. Luminescence was measured on a Tecan GENios microplate reader. Percent inhibition of cell viability was calculated relative to untreated control wells. All tests were performed in triplicate or quadruplicates at each concentration level. IC50 values were calculated using Prism 6.00 curve-fitting with a four parameter-logistic equation.\nas §2"}, "[4]": {"test_system": "RIN-5F", "experiment": "Cell Titer-Glo rat insulinoma cell assay, RIN-5F", "type": "cell-based", "conditions": "cell viability after 168-192 total hours of culture", "experimental": "as §1\n(§3) Cells were seeded at 5000 cells per well in a 96-well microculture plate in a total volume of 100 μl/well and incubated for 24 hours. […] The concentrations tested for paclitaxel were, 10 μM, 2.5 μM, 0.625 μM, 0.156 μM, 0.0391 μM, 0.00977 μM, 0.00244 μM, 0.000610 μM, 0.000153 μM, and 0.0000381 μM. Duplicate data for RIN-5F was obtained where the test concentrations for paclitaxel were, 1 μM, 0.25 μM, 0.0625 μM, 0.0156 μM, 0.00391 μM, 0.000977 μM, 0.000244 μM, 0.0000610 μM, 0.0000153 μM, and 0.00000381 μM. After 168-192 total hours of culture 100 μl of media was removed from each well and 50 μl of Cell Titer-Glo (Promega #G7571) was added to each well. The plate was shaken for 2 minutes and allowed to equilibrate for 10 minutes. Luminescence was measured on a Tecan GENios microplate reader. Percent inhibition of cell viability was calculated relative to untreated control wells. All tests were performed in triplicate or quadruplicates at each concentration level. IC50 values were calculated using Prism 6.00 curve-fitting with a four parameter-logistic equation.\n(§4) Cells were seeded at 5000 cells per well in a 96-well microculture plate in a total volume of 100 μl/well and incubated for 24 hours. […] After 168-192 total hours of culture 100 μl of media was removed from each well and 50 μl of Cell Titer-Glo (Promega #G7571) was added to each well. The plate was shaken for 2 minutes and allowed to equilibrate for 10 minutes. Luminescence was measured on a Tecan GENios microplate reader. Percent inhibition of cell viability was calculated relative to untreated control wells. All tests were performed in triplicate or quadruplicates at each concentration level. IC50 values were calculated using Prism 6.00 curve-fitting with a four parameter-logistic equation."}, "[5]": {"test_system": "RIN-m", "experiment": "Cell Titer-Glo rat insulinoma cell assay, RIN-m", "type": "cell-based", "experimental": "as §1, §3, §4"}, "[6]": {"test_system": "RIN-14B", "experiment": "Cell Titer-Glo rat insulinoma cell assay, RIN-14B", "type": "cell-based", "experimental": "as §1, §3, §4"}, "[7]": {"test_system": "RIN-m5F", "experiment": "Cell Titer-Glo rat insulinoma cell assay, RIN-m5F", "type": "cell-based", "experimental": "as §1, §3, §4"}, "[8]": {"experiment": "at least one biological assay (not specified)"}, "[9]": {"test_system": "RIN-m5F rat insulinoma cells", "experiment": "RNA-Seq expression analysis of JQ1 treated RIN-m5F insulinoma cells", "type": "cell-based", "conditions": "500 nM, 24 hr; result in words", "experimental": "As shown below, BET inhibition disrupts both oncogenic and pancreatic islet cell transcriptional profiles.\nCells were scraped and total RNA was extracted and purified using a Qiagen RNeasy Mini Kit (cat. 74104) as described in the manufacturer's protocol. […] For each sample, 4 μg of total RNA was then used in Illumina's TruSeq RNA sample preparation V2 kit. […] Libraries were sequenced on Illumina NextSeq 500 as paired-end 75-nt reads.\nSequence reads were analyzed with the TopHat—Cufflinks software pipeline. Average size of library molecules was 400 bp, therefore the—r parameter was set to […]. (Versions were: TopHat v2.0.9, Bowtie 2.1.0.0, Cufflinks v2.1.1). The rat (rn5) gene reference GTF file was obtained from Illumina iGenomes."}},
  "note": "Like-named read-outs stand apart in the source and are kept apart here.",
  "data": [
    {"compound": "Cc1sc2c(c1C)C(c1ccc(Cl)cc1)=N[C@@H](CC(=O)NCCN1CCOCC1)c1nnc(C)n1-2", "note": "(stereo in doubt) [(S)-JQ33]", "values": [
      {"measurement": "IC50", "setting": "[1]; 12-point dose response curve, read-out: Bio-assay IC50 BRD4(1)", "result": 85, "unit": "nM"},
      {"measurement": "binding activity with the BRD4 site 1", "setting": "[1]", "result": "excellent binding activity"},
      {"measurement": "IC50", "setting": "[2]; 12-point dose response curve, read-out: Bio-assay IC50 BRD4(2)", "result": 29.5, "unit": "nM"},
      {"measurement": "binding activity with the BRD4 site 2", "setting": "[2]", "result": "excellent binding activity"}
    ]},
    {"compound": "Cc1sc2c(c1C)C(c1ccc(Cl)cc1)=N[C@@H](CC(=O)NCCCN1CCN(C)CC1)c1nnc(C)n1-2", "note": "(stereo in doubt) [(S)-JQ35]", "values": [
      {"measurement": "cell viability at higher concentrations", "setting": "[3]; Example 8", "result": "~0", "unit": "%"},
      {"measurement": "IC50", "setting": "[3]; Rattus norvegicus, RIN-m5F, Example 8", "result": "< 200", "unit": "nM"},
      {"measurement": "binding activity with the BRD4 site 1", "setting": "[1]", "result": "excellent binding activity"},
      {"measurement": "binding activity with the BRD4 site 2", "setting": "[2]", "result": "excellent binding activity"},
      {"measurement": "IC50", "setting": "[4]; Example 8 additional data, two values, read-out: IC50 Values, RIN-5F", "result": 215, "unit": "nM"},
      {"measurement": "IC50", "setting": "[4]; Rattus norvegicus, Example 8 additional data, two values, read-out: IC50 Values, RIN-5F", "result": 183, "unit": "nM"},
      {"measurement": "IC50", "setting": "[5]; Example 8 additional data, cell viability after 168-192 total hours of culture, read-out: IC50 Values, RIN-m", "result": 151, "unit": "nM"},
      {"measurement": "IC50", "setting": "[6]; Example 8 additional data, cell viability after 168-192 total hours of culture, read-out: IC50 Values, RIN-14B", "result": 207, "unit": "nM"},
      {"measurement": "IC50", "setting": "[7]; Example 8 additional data, cell viability after 168-192 total hours of culture, read-out: IC50 Values, RIN-m5F", "result": 188, "unit": "nM"}
    ]},
    {"compound": "Cc1sc2c(c1C)C(c1ccc(Cl)cc1)=N[C@@H](CC(=O)OC(C)(C)C)c1nnc(C)n1-2", "note": "[(S)-JQ1, (S)-tert-Butyl 2-(4-(4-chlorophenyl)-2,3,9-trimethyl-6H-thieno[3,2-f][1,2,4]triazolo [4,3-a][1,4]diazepin-6-yl)acetate]", "values": [
      {"measurement": "cell viability at higher concentrations", "setting": "[3]; Example 3", "result": "~0", "unit": "%"},
      {"measurement": "cell viability at higher concentrations", "setting": "[3]; Example 8", "result": "~0", "unit": "%"},
      {"measurement": "IC50", "setting": "[3]; Rattus norvegicus, RIN-m5F", "result": "< 100", "unit": "nM"},
      {"measurement": "IC50", "setting": "[3]; Example 8", "result": "< 100", "unit": "nM"},
      {"measurement": "IC50", "setting": "[4]; Rattus norvegicus, read-out: IC50 Values, RIN-5F, Example 3, Table 1, duplicate data", "result": 96, "unit": "nM"},
      {"measurement": "IC50", "setting": "[4]; Rattus norvegicus, read-out: IC50 Values, RIN-5F, Example 8 additional data, two values", "result": 52, "unit": "nM"},
      {"measurement": "IC50", "setting": "[4]; read-out: IC50 Values, RIN-5F, Example 3, Table 1, duplicate data", "result": 61, "unit": "nM"},
      {"measurement": "IC50", "setting": "[4]; read-out: IC50 Values, RIN-5F, Example 8 additional data, two values", "result": 73.1, "unit": "nM"},
      {"measurement": "IC50", "setting": "[5]; read-out: IC50 Values, RIN-m, Example 3, Table 1, cell viability after 168-192 total hours of culture", "result": 34, "unit": "nM"},
      {"measurement": "IC50", "setting": "[5]; read-out: IC50 Values, RIN-m, Example 8 additional data, cell viability after 168-192 total hours of culture", "result": 29.3, "unit": "nM"},
      {"measurement": "IC50", "setting": "[6]; read-out: IC50 Values, RIN-14B, Example 3, Table 1, cell viability after 168-192 total hours of culture", "result": 17, "unit": "nM"},
      {"measurement": "IC50", "setting": "[6]; read-out: IC50 Values, RIN-14B, Example 8 additional data, cell viability after 168-192 total hours of culture", "result": 20.7, "unit": "nM"},
      {"measurement": "IC50", "setting": "[7]; read-out: IC50 Values, RIN-m5F, Example 3, Table 1, cell viability after 168-192 total hours of culture", "result": 31, "unit": "nM"},
      {"measurement": "IC50", "setting": "[7]; read-out: IC50 Values, RIN-m5F, Example 8 additional data, cell viability after 168-192 total hours of culture", "result": 51, "unit": "nM"}
    ]},
    {"compound": "Cc1sc2c(c1C)C(c1ccc(Cl)cc1)=N[C@@H](CC(=O)N/N=C/c1ncc[nH]1)c1nnc(C)n1-2", "note": "[(S)-JQ6]", "values": [
      {"measurement": "binding activity with the BRD4 site 1", "setting": "[1]", "result": "excellent binding activity"},
      {"measurement": "binding activity with the BRD4 site 2", "setting": "[2]", "result": "excellent binding activity"}
    ]},
    {"compound": "Cc1sc2c(c1C)C(c1ccc(Cl)cc1)=N[C@@H](CC(=O)NCCc1cnc[nH]1)c1nnc(C)n1-2", "note": "[(S)-JQ8]", "values": [
      {"measurement": "binding activity with the BRD4 site 1", "setting": "[1]", "result": "excellent binding activity"},
      {"measurement": "binding activity with the BRD4 site 2", "setting": "[2]", "result": "excellent binding activity"}
    ]},
    {"compound": "Cc1sc2c(c1C)C(c1ccc(Cl)cc1)=N[C@@H](CC(=O)NCCN1CCN(C)CC1)c1nnc(C)n1-2", "note": "[(S)-JQ13]", "values": [
      {"measurement": "binding activity with the BRD4 site 1", "setting": "[1]", "result": "excellent binding activity"},
      {"measurement": "binding activity with the BRD4 site 2", "setting": "[2]", "result": "excellent binding activity"}
    ]},
    {"compound": "Cc1sc2c(c1C)C(c1ccc(Cl)cc1)=NC(CC(=O)NN)c1nnc(C)n1-2", "note": "(stereo not shown) [Compound 3]", "values": [
      {"measurement": "activity in at least one biological assay", "setting": "[8]", "result": "showed activity"}
    ]},
    {"compound": "Cc1sc2c(c1C)C(c1ccc(Cl)cc1)=NC(CC(=O)OC(C)(C)C)c1nnc(C)n1-2", "note": "(stereo not shown) [JQ1, tert-Butyl 2-(4-(4-chlorophenyl)-2,3,9-trimethyl-6H-thieno[3,2-f][1,2,4]triazolo[4,3-a][1,4]diazepin-6-yl)acetate]", "values": [
      {"measurement": "genes with decreased versus increased expression", "setting": "[9]", "result": "larger number of genes with decreased expression as compared to increased expression"}
    ]},
    {"compound": "CC(=O)O[C@H]1C(=O)[C@@]2(C)[C@H]([C@H](OC(=O)c3ccccc3)[C@]3(O)C[C@H](OC(=O)[C@H](O)[C@@H](NC(=O)c4ccccc4)c4ccccc4)C(C)=C1C3(C)C)[C@]1(OC(C)=O)CO[C@@H]1C[C@@H]2O", "note": "[Paclitaxel, reference compound]", "values": [
      {"measurement": "IC50", "setting": "[4]; Example 3, Table 1, duplicate data, read-out: IC50 Values, RIN-5F", "result": 3.14, "unit": "nM"},
      {"measurement": "IC50", "setting": "[4]; Rattus norvegicus, Example 3, Table 1, duplicate data, read-out: IC50 Values, RIN-5F", "result": 1.63, "unit": "nM"},
      {"measurement": "IC50", "setting": "[5]; Example 3, Table 1, cell viability after 168-192 total hours of culture, read-out: IC50 Values, RIN-m", "result": 0.718, "unit": "nM"},
      {"measurement": "IC50", "setting": "[6]; Example 3, Table 1, cell viability after 168-192 total hours of culture, read-out: IC50 Values, RIN-14B", "result": 1.33, "unit": "nM"},
      {"measurement": "IC50", "setting": "[7]; Example 3, Table 1, cell viability after 168-192 total hours of culture, read-out: IC50 Values, RIN-m5F", "result": 0.43, "unit": "nM"}
    ]}
  ]
}
